Broadly, the inhibition is the relative decrease from the control value, in per cent. Read a low inhibition as a response near the control.

The subject of this experiment is Mycobacterium tuberculosis. The experiment is described as follows: Antimycobacterial activity against Mycobacterium tuberculosis H37Rv ATCC 27294 at 6.25 uM by microplate alamar blue assay. In kind it is functional. (Resazurin is reduced to fluorescent resorufin, in cell work by metabolically active cells.)
`CC1(C)CCC[C@]2(C)[C@H]3C[C@@H](O)[C@]4(C)[C@H]5COC(=O)C5=CC[C@H]4[C@]3(C)CC[C@@H]12`: the inhibition at 6.25 µM worked out at 16%.

Compound `CC(=O)O[C@H]1C[C@H]2[C@]3(C)CC[C@H]4C(C)(C)CCC[C@]4(C)[C@H]3C[C@@H](O)[C@]2(C)[C@H]2OC(=O)C=C12` showed an inhibition at 6.25 µM of 40%.

`CC(=O)O[C@H]1CC[C@]2(C)[C@H]3C[C@@H](O)[C@]4(C)C5=C(CC[C@H]4[C@]3(C)CC[C@H]2C1(C)C)COC5=O` yielded an inhibition at 6.25 µM of 13%.

Take `CC(=O)O[C@H]1C[C@H]2[C@]3(C)CC[C@H]4C(C)(C)CCC[C@]4(C)[C@H]3C[C@@H](O)[C@]2(C)C2=C1COC2=O` [SESTERSTATIN 7]: the inhibition at 6.25 µM came to 63%.

(Values after ChEMBL document CHEMBL1151284, “Antimycobacterial scalarane-based sesterterpenes from the Red Sea sponge Hyrtios erecta” (2005).)
